For assay [1], the system named is HCC1937 BRCA1 mutant and HCC1937 BRCA1 reconstituted cells. As to the kind of experiment: Clonogenic growth assay (WST-1, colony counting). In kind it is cell-based. Here is the method:
HCC1937 BRCA1 mutant and HCC1937 BRCA1 reconstituted breast ductal carcinoma cells were cultured in RPMI-1640 medium supplemented with 10% fetal calf serum, 2 mM L-glutamine, 1 mM sodium pyruvate, 4.5 g/l glucose and 1% (v/v) penicillin/streptomycin. Status of BRCA1 was corroborated by immunoprecipitation using 50 μg nuclear extracts and 1 μg mouse monoclonal antibody MS110 (ab16780, Abcam Inc., Cambridge, MA), which is directed towards the amino-terminus of the protein. Blots were probed with BRCA1 carboxy-terminal specific mouse monoclonal antibody D9 (sc-6954, Santa Cruz Biotechnologies, Santa Cruz, CA) and, following stripping, re-probed with antibody MS110. For assays, 5000 cells in 3 ml medium were seeded per well of 6 well plates in duplicates. The day after, vehicle (DMSO) or compounds were added. After one week medium was exchanged and vehicle or compounds were re-added for an additional two days. To assess proliferation the medium in each well was replaced with 1 ml medium containing 100 μl WST-1 reagent and incubation for 20 minutes at 37°C. Of each sample 110 μl supernatant were transferred into a 96 well plate and the OD was read at 450 nm (filter at 630 nm) on a SpectraMax Plus microtiter plate reader using SoftMax Pro software (Molecular Devices). For background correction, the blank value consisted of 100 μl medium containing 10 μl WST-1. Thereafter, colonies were stained by removing medium, washing cells once with PBS and incubation with 1 ml crystal violet solution for 30 minutes at room temperature. Cells were washed twice with PBS and colonies were counted using an Artec Counter (Model 880, Artec, Dyntatech Laboratories Inc.) with diameter cut-off set to 0.2 mm. Data were expressed as growth or colony numbers relative to vehicle control treatments (100%).

Assay [2] has as its system topoisomerase II from nuclear extracts of HL-60 cells. Briefly: DNA decatenation assay with HL-60 nuclear extracts (kDNA). In kind it is biochemical, human. As to conditions: catenated kDNA, 450 μM ATP, read-out: mean IC50, inhibition of DNA decatenation. The procedure:
Reagents for the assay were purchased from TopoGEN (catalog number 1001–1, TopoGEN, Inc., Port Orange, FL). Topoisomerase II was extracted according to the manufacturer's instructions from nuclei of HL-60 cells (ATCC; American Type Culture Collection, Manassas, Virginia, USA) and contained both isoforms as assessed by Western blotting. Calculation of specific topoisomerase II decatenation activity was based on complete decatenation of a given amount of catenated input DNA (100 ng kDNA) by a defined amount of nuclear extract containing the alpha and beta isoforms or of a defined amount of purified enzyme in a particular amount of time. The topoisomerase II activity from nuclei decatenated 0.07 ng catenated kDNA · min^-1 · ng^-1 extract. Purified topoisomerase II alpha (see above) decatenated 0.13 ng catenated kDNA · min^-1 · ng^-1. Vehicle (DMSO) or drug substance at concentrations to yield the desired end concentrations were added and samples were preincubated for 5 minutes at 37°C and 400 rpm in an Eppendorf thermomixer. Reactions were started by adding ATP (to 450 μM final concentration) to each sample and incubation was continued for 20 minutes. […] Gels were analyzed under a UV transilluminator and decatenated kDNA products were quantified using AlphaEaseFC (FluorChem 8900) image analysis software version 3.2.3 (Alpha Innotech, San Leandro, CA).

The target of a further assay is topoisomerase II alpha (Homo sapiens, UniProt P11388). As to the kind of experiment: DNA-dependent ATPase assay (malachite green). In kind it is biochemical. On the set-up: screened in an ATPase assay using purified full length tagged human topoisomerase II alpha; made in house; host or cells: Sf21 insect cells, baculovirus (pFastBac1). The procedure:
DNA-dependent ATP hydrolysis of human topoisomerase II α was monitored by measuring the production of inorganic phosphate using acidic molybdate and malachite green. Specific ATPase activity of every batch was tested in a time-course to determine optimal incubation times and enzyme concentrations within the linear range of the assay. Reactions thus contained 10 – 40 nM topoisomerase II (dimer concentration) in reaction buffer (10 mM Tris HCl pH 7.5, 175 mM KCl, 0.1 mM EDTA, 5 mM MgCl2, 2 mM DTT, 2.5% glycerol and 1.7 nM supercoiled pUC18). The specific activity of the human topoisomerase II α enzyme measured in the ATPase assay was 0.24 μmol PO4·min^-1·mg^-1. […] Compounds at the indicated concentrations were added as serial dilutions prepared in DMSO and preincubated for 10 minutes at 37°C on an orbital shaker. Reactions were started by the addition of 400 μM ATP (Sigma, catalog number A2383) and allowed to proceed for 30 minutes. Reactions were terminated by the addition of 200 μl malachite green reagent and the OD was read immediately at 630 nm on a SpectraMax Plus microtiter plate reader using SoftMax Pro software (Molecular Devices). For kinetic analysis, reactions were carried out in duplicate as described above either in the presence of vehicle (DMSO) or QAP 1. Following a preincubation for 5 minutes, ATP was added at the indicated concentrations to start the reactions, which were allowed to proceed for 17 minutes before stopping and reading as above. From these values the OD values obtained at each respective ATP concentration without enzyme were subtracted for background correction. […] A compromise was found by carrying out the competition experiments with a single concentration of the inhibitor that gave a good inhibition of enzyme activity while keeping a measurable signal. The equations used to fit these experiments are: […]
Each competition experiment was fitted (Grafit version 5.04 – Erithacus Software) with these 3 equations and the models that gave unrealistic inhibition constants (above 10 mM) and/or large standard errors (similar to the value of the fitted parameter) were rejected. Then, the F-test was carried out to identify the best fitting model. An alternative method was used to determine the mode of action of the inhibitor. Dose-response experiments were carried out at different ATP concentrations and the corresponding IC50s determined. According to the Cheng-Prusoff equation for linear competitive inhibition: […]
The IC50 of a competitive inhibitive inhibitor should increase in a linear fashion with the concentration of ATP. The measured IC50s were then plotted in function of the ATP concentrations and linear regression analyses were carried out. […] Mean Km and Vmax values were calculated from two independent experiments.

topoisomerase II alpha, sequence (P11388 whole entry): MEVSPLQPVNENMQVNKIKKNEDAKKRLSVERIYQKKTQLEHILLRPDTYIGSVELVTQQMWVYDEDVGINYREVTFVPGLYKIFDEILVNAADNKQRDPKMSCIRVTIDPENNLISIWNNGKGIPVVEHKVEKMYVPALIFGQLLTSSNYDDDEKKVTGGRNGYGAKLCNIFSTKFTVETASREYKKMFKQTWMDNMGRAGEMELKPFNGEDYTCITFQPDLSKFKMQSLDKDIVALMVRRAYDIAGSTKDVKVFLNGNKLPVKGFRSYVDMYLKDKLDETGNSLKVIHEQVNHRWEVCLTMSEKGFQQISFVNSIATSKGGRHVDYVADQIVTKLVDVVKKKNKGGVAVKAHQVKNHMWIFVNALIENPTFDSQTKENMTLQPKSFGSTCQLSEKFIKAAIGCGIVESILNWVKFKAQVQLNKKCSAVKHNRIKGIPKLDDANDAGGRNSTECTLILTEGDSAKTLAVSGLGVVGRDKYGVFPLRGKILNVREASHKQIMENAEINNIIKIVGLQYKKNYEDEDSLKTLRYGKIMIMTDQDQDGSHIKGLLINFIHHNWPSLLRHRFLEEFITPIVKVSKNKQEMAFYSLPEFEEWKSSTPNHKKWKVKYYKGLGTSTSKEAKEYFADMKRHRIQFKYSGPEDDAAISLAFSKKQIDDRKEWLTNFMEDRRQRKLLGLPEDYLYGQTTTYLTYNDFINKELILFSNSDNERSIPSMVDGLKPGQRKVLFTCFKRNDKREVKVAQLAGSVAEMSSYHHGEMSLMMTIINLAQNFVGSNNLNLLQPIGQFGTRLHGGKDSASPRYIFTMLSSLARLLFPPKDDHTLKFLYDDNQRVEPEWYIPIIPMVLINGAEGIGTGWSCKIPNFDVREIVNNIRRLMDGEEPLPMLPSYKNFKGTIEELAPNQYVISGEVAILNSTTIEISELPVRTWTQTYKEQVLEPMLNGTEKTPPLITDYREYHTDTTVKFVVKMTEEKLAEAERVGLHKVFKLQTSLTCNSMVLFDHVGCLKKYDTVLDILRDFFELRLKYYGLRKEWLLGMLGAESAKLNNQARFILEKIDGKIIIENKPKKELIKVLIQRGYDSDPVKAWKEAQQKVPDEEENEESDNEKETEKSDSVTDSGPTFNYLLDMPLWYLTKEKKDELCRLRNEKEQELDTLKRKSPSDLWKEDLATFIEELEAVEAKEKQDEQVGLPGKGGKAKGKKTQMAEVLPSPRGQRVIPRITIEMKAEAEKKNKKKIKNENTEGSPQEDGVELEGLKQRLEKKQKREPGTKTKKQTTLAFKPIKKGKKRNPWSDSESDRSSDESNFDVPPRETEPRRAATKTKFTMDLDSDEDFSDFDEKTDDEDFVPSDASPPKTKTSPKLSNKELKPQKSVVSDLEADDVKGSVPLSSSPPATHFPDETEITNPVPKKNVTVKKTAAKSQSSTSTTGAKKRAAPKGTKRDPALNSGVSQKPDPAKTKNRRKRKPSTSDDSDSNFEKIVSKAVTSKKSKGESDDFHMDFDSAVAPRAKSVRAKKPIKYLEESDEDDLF

Turning to `CCc1nc2nc(Nc3ccc4nc(OCCN5CCOCC5)ccc4c3)nc(NC(C)(C)C)c2[nH]1` [QAP 1], the “colony formation of BRCA1 mutant cells” value in assay [1] (5 μM, 9 days) is “striking suppression”. Moreover, the “sensitivity of BRCA1 mutant versus BRCA1 reconstituted HCC1937 cells” value in assay [1] (continuous treatment for 9 days, WST-1 and colony numbers) is recorded as “differential antiproliferative effect”. Moreover, the IC50 in assay [2] was 0.77 µM; on topoisomerase II alpha (full length tagged human topoisomerase II alpha, 400 μM ATP), 0.128 ± 0.021 µM. For the same compound, the “mode of inhibition (kinetic analysis, F-test)” value on topoisomerase II alpha (non-linear regression, competitive vs uncompetitive vs mixed models) is “ATP-competitive inhibitor”.

Broadly, the IC50 is the concentration that inhibits the measured activity by half.
